Consider 100 compounds from PubChem BioAssay AID1033 (Sanford-Burnham Center for Chemical Genomics, 2008).

Molecules are shown by their SMILES. Calls of active or inactive are those of the source. How the calls were made is not given here. A value given as a limit tells only on which side of the number the result lay.

For this assay, the target named is Chaperone protein DnaK (Escherichia coli (strain K12)) (UniProt P0A6Y8). The assay can be described thus: binders of DnaK substrate-binding domain, biophysical, NMR, chaperone (AID 1033). The conditions noted are these: Purified DnaK SBD, NMR ligand binding.
Chain of Chaperone protein DnaK (Escherichia coli (strain K12)) (P0A6Y8 whole entry, looked up, the tested form may be a part): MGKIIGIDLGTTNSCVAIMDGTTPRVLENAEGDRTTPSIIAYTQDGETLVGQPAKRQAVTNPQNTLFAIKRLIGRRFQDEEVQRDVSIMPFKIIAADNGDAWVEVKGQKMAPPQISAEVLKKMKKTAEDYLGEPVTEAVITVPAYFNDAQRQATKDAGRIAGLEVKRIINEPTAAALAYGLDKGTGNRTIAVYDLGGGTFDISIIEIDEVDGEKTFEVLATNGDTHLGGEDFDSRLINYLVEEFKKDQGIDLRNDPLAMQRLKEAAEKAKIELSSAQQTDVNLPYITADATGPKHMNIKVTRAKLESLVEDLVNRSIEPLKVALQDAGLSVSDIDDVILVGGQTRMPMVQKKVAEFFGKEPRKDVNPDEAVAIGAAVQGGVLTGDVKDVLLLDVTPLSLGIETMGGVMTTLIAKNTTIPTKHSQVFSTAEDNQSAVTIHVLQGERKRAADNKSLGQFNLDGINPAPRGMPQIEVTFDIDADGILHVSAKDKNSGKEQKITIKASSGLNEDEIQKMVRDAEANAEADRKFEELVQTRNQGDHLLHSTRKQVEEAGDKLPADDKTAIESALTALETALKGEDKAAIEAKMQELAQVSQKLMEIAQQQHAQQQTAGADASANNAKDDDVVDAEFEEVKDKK
On to `CC1=C(/C=C/C(C)=C/C=C/C(C)=C/C=C/C=C(C)/C=C/C=C(C)/C=C/C2=C(C)CCCC2(C)C)C(C)(C)CCC1`, for which the Kd (commonly the equilibrium constant for the complex coming apart) is > 4 mM (inactive).

For the compound `CC(=O)Nc1cccc(NC(=O)c2cccnc2)c1`, the Kd is > 4 mM (inactive).

Turning to `COC(=O)c1c(C)cc(OC(=O)c2c(C)cc(O)c(C=O)c2O)c(C)c1O`, the Kd was > 4 mM (inactive).

`COc1ccccc1NC(N)=S`: the Kd is > 4 mM (inactive).

With `Cc1cccc(-c2nnc(-c3ccc(N)cc3)o2)c1`, the Kd is > 4 mM (inactive).

`O=c1[nH]oc2ccccc12`: the Kd was > 4 mM (inactive).

Consider `Cc1n[nH]c(=O)c2ncn(C)c12`, for which the Kd is > 4 mM (inactive).

Turning to `Cc1cc(NC(=O)c2cccc(N3C(=O)CCC3=O)c2)no1`, the Kd was > 4 mM (inactive).

Turning to `S=C(c1ccc(N2CCOCC2)cc1)N1CCCCC1`, the Kd was > 4 mM (inactive).

In the case of `COc1cc2c(cc1OC)-c1nnnn1C(C)(C)C2`, the Kd is > 4 mM (inactive).

Regarding `COc1cc([C@@H]2c3cc4c(cc3[C@H](OC(C)=O)[C@H]3COC(=O)[C@@H]23)OCO4)cc(OC)c1OC`, the Kd is > 4 mM (inactive).

As for `O=C(CSc1ncn[nH]1)c1ccc2c(c1)OCCO2`, the Kd was > 4 mM (inactive).

For the compound `NC(=O)CSc1nnc2ccc3ccccc3n12`, the Kd was > 4 mM (inactive).

Turning to `CN1C(=O)CC[C@H]1c1cccnc1`, the Kd was > 4 mM (inactive).

Turning to `NC(=O)CCn1c(=O)oc2ccccc21`, the Kd was > 4 mM (inactive).

As to `CCOc1cc(C)c(Cl)cc1S(=O)(=O)N(C)C`, the Kd is > 4 mM (inactive).

In the case of `COC(=O)c1scc(S(C)(=O)=O)c1-n1cccc1`, the Kd is > 4 mM (inactive).

Consider `c1ccc(-n2ncc3c(NCc4ccco4)ncnc32)cc1`, for which the Kd was > 4 mM (inactive).

As for `OC1CSc2ncnn2C1` (stereo not given), the Kd was > 4 mM (inactive).

`COCC(=O)NC1CC(C)(C)NC(C)(C)C1`: the Kd was > 4 mM (inactive).

Take `C/C=C1\[C@H]2C=C(C)C[C@]1(N)c1ccc(=O)[nH]c1C2`: the Kd was > 4 mM (inactive).

For the compound `CN(C)N1C(=O)C2CCCCC2C1=O` (stereo not given), the Kd was > 4 mM (inactive).

As for `Cc1cn(C(=O)CN2C(=O)c3ccccc3C2=O)c(C)n1`, the Kd is > 4 mM (inactive).

`S=C(Nc1ccc2nccnc2c1)N1CCOCC1`: the Kd was > 4 mM (inactive).

In the case of `O=C1COc2ccc(C(=O)c3ccccc3)cc2CN1`, the Kd is > 4 mM (inactive).

As for `O=S(=O)(Cc1ccc(Cl)cc1)N1CCCC1`, the Kd is > 4 mM (inactive).

On to `O=P(c1ccccc1)(c1ccccc1)C1CCOCC1`, for which the Kd is > 4 mM (inactive).

Regarding `O=C(O)CCc1nc2ccccc2[nH]c1=O`, the Kd was > 4 mM (inactive).

For `Nc1ccc2c(c1)CCCC2=O`, the Kd was > 4 mM (inactive).

Consider `C[C@@H]1CC[C@@]2(OC1)O[C@H]1CC3C4CC[C@H]5C[C@@H](O)CC[C@]5(C)C4CC[C@]3(C)[C@H]1[C@@H]2C` (stereo not given in full), for which the Kd was > 4 mM (inactive).

Take `O=C(Nc1ccc2c(c1)OCO2)c1cccc(F)c1`: the Kd was > 4 mM (inactive).

As to `O=C(NCN1CCOCC1)c1cnccn1`, the Kd was > 4 mM (inactive).

As to `O=C1C2C3C=CC(C3)C2C(=O)N1CCO` (stereo not given), the Kd is > 4 mM (inactive).

Turning to `S=c1ccc(N2CCCCC2)n[nH]1`, the Kd is > 4 mM (inactive).

As to `Cc1sc2nc(SC3CCOC3=O)[nH]c(=O)c2c1C` (stereo not given), the Kd was > 4 mM (inactive).

For the compound `COC(=O)[C@@H]1OC(=O)C2OC23[C@@]1(C)CCC1[C@@]2(C)CCC(=O)C(C)(C)C2C[C@@H](OC(C)=O)[C@]13C` (stereo not given in full), the Kd was > 4 mM (inactive).

With `CCCCCc1c2c(cc(O)c1C(=O)O)OC(=O)c1c(cc(OC)cc1C(=O)CCCC)O2`, the Kd is > 4 mM (inactive).

Consider `Nc1ccc(N2CCOCC2)c(Cl)c1`, for which the Kd is > 4 mM (inactive).

As for `CC(=O)c1cc(-c2nc3ccccc3n2C)n(C)c1`, the Kd is > 4 mM (inactive).

Consider `CCCCCC/C=C\CCCCCCCc1cccc(O)c1C(=O)O`, for which the Kd was > 4 mM (inactive).

`CCC(=O)Nc1ccccc1NC(C)=O`: the Kd is > 4 mM (inactive).

`O=C(O)C1Cc2ccccc2N1` (stereo not given): the Kd was > 4 mM (inactive).

In the case of `Cc1ccc2cc(C(=O)O)ccc2n1`, the Kd was > 4 mM (inactive).

Take `Cc1cccc(C(C)C)c1NC(=O)c1cccnc1`: the Kd is > 4 mM (inactive).

As for `CC1(C)C2CC[C@]3(C)C(C(=O)C=C4[C@@H]5C[C@@](C)(C(=O)O)CC[C@]5(C)CC[C@]43C)[C@@]2(C)CC[C@@H]1O` (stereo not given in full), the Kd is > 4 mM (inactive).

In the case of `O=C(O)c1cc(=O)[nH]c2ccccc12`, the Kd was > 4 mM (inactive).

Consider `O=S(=O)(O)c1cc[n+]([O-])cc1`, for which the Kd was > 4 mM (inactive).

`C[n+]1ccc(C(=O)[O-])cc1`: the Kd was > 4 mM (inactive).

As for `CN1CCN(c2ccc(CN)cc2)CC1`, the Kd is > 4 mM (inactive).

`CNC(Cc1c[nH]c2ccccc12)C(=O)O` (stereo not given): the Kd is > 4 mM (inactive).

Regarding `Cn1c(=O)n(C)c2nc([N+](=O)[O-])c(Cl)cc21`, the Kd was > 4 mM (inactive).

`Cn1c(=O)c2c([nH]c(=O)n2C)n(C)c1=O`: the Kd is > 4 mM (inactive).

With `Nc1nnc(SCc2ccc3c(c2)OCO3)s1`, the Kd is > 4 mM (inactive).

For the compound `CC(C)=CCc1c2c(c3occ(-c4ccc(O)cc4)c(=O)c3c1O)C=CC(C)(C)O2`, the Kd was > 4 mM (inactive).

Turning to `O=C(c1cccc(-n2cnnn2)c1)N1CCOCC1`, the Kd was > 4 mM (inactive).

On to `Cc1c(C(=O)Nn2cnnc2)oc2ccccc12`, for which the Kd was > 4 mM (inactive).

On to `CC(=O)Nc1ccc2c(c1)CCCC2=O`, for which the Kd is > 4 mM (inactive).

Take `Cc1nc(-c2ccc(CO)s2)cs1`: the Kd was > 4 mM (inactive).

In the case of `CN1C(=O)c2ccc(C(=O)NCc3ccccc3)cc2C1=O`, the Kd is > 4 mM (inactive).

Regarding `O=S(=O)(Cc1ccccc1)N1CCCCCC1`, the Kd is > 4 mM (inactive).

As for `CS(=O)(=O)c1ccccc1C(=O)Nc1nccs1`, the Kd is > 4 mM (inactive).

For `CN=C(C)c1c(O)n(C)c(=S)n(C)c1=O`, the Kd was > 4 mM (inactive).

Take `CCC(C)C(=O)O[C@@H]1C[C@@]2(C)[C@H](c3ccoc3)OC(=O)CC23OC2(C)O[C@]14[C@]1(C)[C@@H](CC(=O)OC)C5(C)CC1(O)[C@](O)(C5OC(=O)C1(C)OC1C)[C@@H](OC(C)=O)[C@]34O2` (stereo not given in full): the Kd was > 4 mM (inactive).

`NN1C(=O)CSC1=Nc1ccccc1`: the Kd was > 4 mM (inactive).

For `COC(=O)C[C@@H]1C2(C)C(=O)[C@@H](CC3=C4C=C(OC)O[C@@H](c5ccoc5)[C@]4(C)CCC32)[C@H](O)C1(C)C` (stereo not given in full), the Kd was > 4 mM (inactive).

With `Cc1cc(N2CCCC2=O)c(N)cc1N`, the Kd is > 4 mM (inactive).

Turning to `CC(C)=CCc1c(O)cc(C)oc1=O`, the Kd is > 4 mM (inactive).

With `OC(CCl)c1ccc(-n2cncn2)cc1` (stereo not given), the Kd is > 4 mM (inactive).

For `CCCSc1nnc2[nH]c(=O)cc(N)n12`, the Kd was > 4 mM (inactive).

With `COc1ccc(-c2coc3cc(OC)cc(OC)c3c2=O)cc1`, the Kd is > 4 mM (inactive).

Regarding `NC(=O)c1ccccc1NC(=O)c1cccnc1`, the Kd was > 4 mM (inactive).

For the compound `c1ccc(Cc2nnc3sc(-c4ccccn4)nn23)cc1`, the Kd was > 4 mM (inactive).

For `O=C1Nc2ccccc2C1(O)Cc1ccncc1` (stereo not given), the Kd is > 4 mM (inactive).

As to `C=C1CCC2[C@](C)(CO)[C@H](O)CC[C@@]2(C)[C@@H]1C/C=C1/C(=O)OC[C@H]1O` (stereo not given in full), the Kd was > 4 mM (inactive).

Regarding `CC(C)=CC(=O)Nc1ccccc1Br`, the Kd was > 4 mM (inactive).

As for `NC(=O)C(=O)Nc1nc(-c2ccccc2)cs1`, the Kd was > 4 mM (inactive).

On to `NC1=NC(=O)/C(=C/c2cccs2)S1`, for which the Kd was > 4 mM (inactive).

With `O=C(O)CCc1c[nH]c2ccccc12`, the Kd was > 4 mM (inactive).

Regarding `O=C1C2CCCCC2C(=O)N1Cc1cccnc1` (stereo not given), the Kd was > 4 mM (inactive).

With `NCC(=O)c1ccccc1`, the Kd is > 4 mM (inactive).

`S=C(NC1=NCCS1)Nc1ccccc1`: the Kd is > 4 mM (inactive).

Consider `C=C[C@](C)(O)CCC=C(C)C`, for which the Kd is > 4 mM (inactive).

`O=C(Nc1cccc(O)c1)c1ccccc1`: the Kd was > 4 mM (inactive).

For the compound `CC1(C)C(=O)CC[C@@]2(C)C1C[C@@H](O)[C@@]1(C)C3=CC(=O)O[C@@H](c4ccoc4)[C@]3(C)CCC21` (stereo not given in full), the Kd is > 4 mM (inactive).

For the compound `NC(=O)Cc1nc(-c2ccc(F)cc2)cs1`, the Kd was > 4 mM (inactive).

Take `c1ccc(Cn2c(Nn3cnnc3)nc3ccccc32)cc1`: the Kd was > 4 mM (inactive).

For the compound `CC(=O)Nc1cccc(N2CCCC2=O)c1`, the Kd is > 4 mM (inactive).

For `CC(C)NC(=O)c1cc(=O)n(C)c(=O)n1C`, the Kd was > 4 mM (inactive).

For `COc1ccc2c(c1)[nH]c1c(C)nccc12`, the Kd was > 4 mM (inactive).

`CCCCn1c(S(=O)(=O)O)nc2ccccc21`: the Kd was > 4 mM (inactive).

`Cc1ccc(OCC(=O)n2cnnc2N)c(C)c1`: the Kd is > 4 mM (inactive).

Take `O=S(=O)(Nc1cccc2cn[nH]c12)c1ccc(F)cc1`: the Kd was > 4 mM (inactive).

In the case of `CCc1noc(C)c1C(=O)N1CCCC1`, the Kd was > 4 mM (inactive).

For `CCCNC(=O)CSc1ncccc1C(=O)O`, the Kd was > 4 mM (inactive).

Regarding `Cc1csc(NC(=O)c2ccoc2C)n1`, the Kd is > 4 mM (inactive).

On to `c1cncc(-c2nnc(-c3cccnc3)nn2)c1`, for which the Kd is > 4 mM (inactive).

`O=c1c2ccccc2nc2n1CCCCN2`: the Kd was > 4 mM (inactive).

As for `O=C(NC1CCS(=O)(=O)C1)c1ccccc1` (stereo not given), the Kd was > 4 mM (inactive).

On to `CC1=CC(C)C(C(=O)O)C(C(=O)N2CCN(C)CC2)C1` (stereo not given), for which the Kd is > 4 mM (inactive).

Consider `COc1ccc(-c2oc3ccccc3c(=O)c2O)cc1OC`, for which the Kd was > 4 mM (inactive).
